Assay results: US20260130901A1, “CGRP RECEPTOR ANTAGONIST FOR THE TREATMENT OF MIGRAINE” (ALLERGAN PHARMACEUTICALS INTERNATIONAL LIMITED, priority 2022, published 2026)

Columns and labels:
[1] = tested on: participants with migraine (qualifying prodrome events); assay: Phase 3 crossover study: satisfaction with study medication; format: in vivo, human; settings: 100 mg in prodrome
Protocol: (§1) A phase 3, multicenter, randomized, double-blind, placebo-controlled, crossover study was carried out to evaluate the efficacy, safety, and tolerability of oral ubrogepant in the acute treatment of migraine when administered during the prodrome. The study evaluated whether treatment during the initial phase of a migraine attack (i.e., the prodrome or premonitory phase) prior to the onset of headache, can attenuate the severity of the headache phase and reduce disability.
(§2) Eligible participants were randomized (1:1) to treatment sequences A or B in this crossover study. Participants randomized to Treatment Sequence A received placebo to treat their first qualifying prodrome event and ubrogepant 100 mg to treat their second qualifying prodrome event. For those randomized to Treatment Sequence B, they received the reverse: ubrogepant 100 mg to treat their first qualifying prodrome event and placebo to treat their second qualifying prodrome event.

[2] = tested on: participants with migraine (qualifying prodrome events); assay: Phase 3 crossover study: absence of prodrome symptoms over time; format: in vivo, human; settings: 100 mg in prodrome; for Absence of dizziness, Nonresponder (%) / Absence of dizziness, Odds ratio vs. placebo / Absence of dizziness, Responder (%) / Absence of fatigue, Nonresponder (%) / Absence of fatigue, Odds ratio vs. placebo / Absence of fatigue, Responder (%) / Absence of neck pain, Nonresponder (%) / Absence of neck pain, Odds ratio vs. placebo / Absence of neck pain, Responder (%) / Absence of sensitivity to light, Nonresponder (%) / Absence of sensitivity to light, Odds ratio vs. placebo / Absence of sensitivity to light, Responder (%) / Absence of sensitivity to sound, Nonresponder (%) / Absence of sensitivity to sound, Odds ratio vs. placebo / Absence of sensitivity to sound, Responder (%): participants with symptom at predose
Protocol: as §1, §2
N1 is the number of participants with the prodrome symptom at predose. N2 is the number of participants with non-missing prodrome symptom intensity assessment by timepoint after dose. The proportion of events with absence of sensitivity to light after ubrogepant 100 mg was numerically greater than after placebo, starting at 2 hours post-dose and extending through 48 hours (nominal P≤0.0109 for hours 2-8).
N1 is the number of participants with the prodrome symptom at predose. N2 is the number of participants with non-missing prodrome symptom intensity assessment by timepoint after dose. The difference in response rates was nominally significant for the ubrogepant 100 mg dose group compared with placebo as early as 3 hours post-dose administered during the prodrome.
N1 is the number of participants with the prodrome symptom at predose. N2 is the number of participants with non-missing prodrome symptom intensity assessment by timepoint after dose.

## C[C@@H]1[C@H](c2ccccc2)C[C@H](NC(=O)c2cnc3c(c2)C[C@@]2(C3)C(=O)Nc3ncccc32)C(=O)N1CC(F)(F)F [Ubrogepant, (3′S)—N-((3S,5S,6R)-6-methyl-2-oxo-5-phenyl-1-(2,2,2-trifluoroethyl)piperidin-3-yl)-2′-oxo-1′,2′,5,7-tetrahydrospiro[cyclopenta[b]pyridine-6,3′-pyrrolo[2,3-b]pyridine]-3-carboxamide]
[1]; 8 Hours post-dose
  Satisfaction with study medication, Odds ratio vs placebo: 2.37
  Satisfaction with study medication, responder rate (%) (satisfied or extremely satisfied): (66.0) %
[1]; 24 Hours post-dose
  Satisfaction with study medication, Odds ratio vs placebo: 2.32
  Satisfaction with study medication, responder rate (%) (satisfied or extremely satisfied): (65.6) %
[1]; 24 Hours post-dose, listed as ubrogepant
  Satisfaction with study medication, responder rate (%) (satisfied or extremely satisfied): 65.6%
[2]
  Response rates vs placebo, absence of dizziness: Numerically higher response rates
  Response rates vs placebo, absence of sensitivity to sound: Numerically higher response rates
[2]; 1 Hour post dose
  Absence of dizziness, Nonresponder (%): (90.0) %
  Absence of dizziness, Odds ratio vs. placebo: 0.96
  Absence of dizziness, Responder (%): (10.0) %
  Absence of fatigue, Nonresponder (%): (95.1) %
  Absence of fatigue, Odds ratio vs. placebo: 1.23
  Absence of fatigue, Responder (%): (4.9) %
  Absence of neck pain, Nonresponder (%): (95.8) %
  Absence of neck pain, Odds ratio vs. placebo: 1.43
  Absence of neck pain, Responder (%): (4.2) %
  Absence of sensitivity to light, Nonresponder (%): (95.2) %
  Absence of sensitivity to light, Odds ratio vs. placebo: 1.08
  Absence of sensitivity to light, Responder (%): (4.8) %
  Absence of sensitivity to sound, Nonresponder (%): (92.0) %
  Absence of sensitivity to sound, Odds ratio vs. placebo: 1.23
  Absence of sensitivity to sound, Responder (%): (8.0) %
[2]; 2 Hours post dose
  Absence of dizziness, Nonresponder (%): (70.7) %
  Absence of dizziness, Odds ratio vs. placebo: 1.17
  Absence of dizziness, Responder (%): (29.3) %
  Absence of fatigue, Nonresponder (%): (81.6) %
  Absence of fatigue, Odds ratio vs. placebo: 1.43
  Absence of fatigue, Responder (%): (18.4) %
  Absence of neck pain, Nonresponder (%): (84.6) %
  Absence of neck pain, Odds ratio vs. placebo: 1.39
  Absence of neck pain, Responder (%): (15.4) %
  Absence of sensitivity to light, Nonresponder (%): (80.5) %
  Absence of sensitivity to light, Odds ratio vs. placebo: 1.72
  Absence of sensitivity to light, Responder (%): (19.5) %
  Absence of sensitivity to sound, Nonresponder (%): (74.7) %
  Absence of sensitivity to sound, Odds ratio vs. placebo: 1.59
  Absence of sensitivity to sound, Responder (%): (25.3) %
[2]; 3 Hours post dose
  Absence of dizziness, Nonresponder (%): (60.7) %
  Absence of dizziness, Odds ratio vs. placebo: 1.60
  Absence of dizziness, Responder (%): (39.3) %
  Absence of fatigue, Nonresponder (%): (72.7) %
  Absence of fatigue, Odds ratio vs. placebo: 1.85
  Absence of fatigue, Responder (%): (27.3) %
  Absence of neck pain, Nonresponder (%): (71.1) %
  Absence of neck pain, Odds ratio vs. placebo: 2.04
  Absence of neck pain, Responder (%): (28.9) %
  Absence of sensitivity to light, Nonresponder (%): (67.6) %
  Absence of sensitivity to light, Odds ratio vs. placebo: 1.58
  Absence of sensitivity to light, Responder (%): (32.4) %
  Absence of sensitivity to sound, Nonresponder (%): (64.4) %
  Absence of sensitivity to sound, Odds ratio vs. placebo: 1.45
  Absence of sensitivity to sound, Responder (%): (35.6) %
[2]; 4 Hours post dose
  Absence of dizziness, Nonresponder (%): (50.0%
  Absence of dizziness, Odds ratio vs. placebo: 1.37
  Absence of dizziness, Responder (%): (50.0) %
  Absence of fatigue, Nonresponder (%): (65.2) %
  Absence of fatigue, Odds ratio vs. placebo: 1.93
  Absence of fatigue, Responder (%): (34.8) %
  Absence of neck pain, Nonresponder (%): (61.3) %
  Absence of neck pain, Odds ratio vs. placebo: 2.27
  Absence of neck pain, Responder (%): (38.7) %
  Absence of sensitivity to light, Nonresponder (%): (55.2) %
  Absence of sensitivity to light, Odds ratio vs. placebo: 1.46
  Absence of sensitivity to light, Responder (%): (44.8) %
  Absence of sensitivity to sound, Nonresponder (%): (49.3) %
  Absence of sensitivity to sound, Odds ratio vs. placebo: 1.97
  Absence of sensitivity to sound, Responder (%): (50.7) %
[2]; 6 Hours post dose
  Absence of dizziness, Nonresponder (%): (37.8) %
  Absence of dizziness, Odds ratio vs. placebo: 1.45
  Absence of dizziness, Responder (%): (62.2) %
  Absence of fatigue, Nonresponder (%): (56.3) %
  Absence of fatigue, Odds ratio vs. placebo: 1.46
  Absence of fatigue, Responder (%): (43.7) %
  Absence of neck pain, Nonresponder (%): (52.0) %
  Absence of neck pain, Odds ratio vs. placebo: 1.68
  Absence of neck pain, Responder (%): (48.0) %
  Absence of sensitivity to light, Nonresponder (%): (42.1) %
  Absence of sensitivity to light, Odds ratio vs. placebo: 1.75
  Absence of sensitivity to light, Responder (%): (57.9) %
  Absence of sensitivity to sound, Nonresponder (%): (43.3) %
  Absence of sensitivity to sound, Odds ratio vs. placebo: 1.44
  Absence of sensitivity to sound, Responder (%): (56.7) %
[2]; 8 Hours post dose
  Absence of dizziness, Nonresponder (%): (27.9) %
  Absence of dizziness, Odds ratio vs. placebo: 1.33
  Absence of dizziness, Responder (%): (72.1) %
  Absence of fatigue, Nonresponder (%): (46.1) %
  Absence of fatigue, Odds ratio vs. placebo: 1.87
  Absence of fatigue, Responder (%): (53.9) %
  Absence of neck pain, Nonresponder (%): (49.7) %
  Absence of neck pain, Odds ratio vs. placebo: 1.40
  Absence of neck pain, Responder (%): (50.3) %
  Absence of sensitivity to light, Nonresponder (%): (28.9) %
  Absence of sensitivity to light, Odds ratio vs. placebo: 2.40
  Absence of sensitivity to light, Responder (%): (71.1) %
  Absence of sensitivity to sound, Nonresponder (%): (33.8) %
  Absence of sensitivity to sound, Odds ratio vs. placebo: 1.75
  Absence of sensitivity to sound, Responder (%): (66.2) %
[2]; 24 Hours post dose
  Absence of dizziness, Nonresponder (%): (11.5) %
  Absence of dizziness, Odds ratio vs. placebo: 1.82
  Absence of dizziness, Responder (%): (88.5) %
  Absence of fatigue, Nonresponder (%): (31.4) %
  Absence of fatigue, Odds ratio vs. placebo: 1.19
  Absence of fatigue, Responder (%): (68.6) %
  Absence of neck pain, Nonresponder (%): (28.6) %
  Absence of neck pain, Odds ratio vs. placebo: 1.42
  Absence of neck pain, Responder (%): (71.4) %
  Absence of sensitivity to light, Nonresponder (%): (18.1) %
  Absence of sensitivity to light, Odds ratio vs. placebo: 1.37
  Absence of sensitivity to light, Responder (%): (81.9) %
  Absence of sensitivity to sound, Nonresponder (%): (16.9) %
  Absence of sensitivity to sound, Odds ratio vs. placebo: 1.38
  Absence of sensitivity to sound, Responder (%): (83.1) %
[2]; 48 Hours post dose
  Absence of dizziness, Nonresponder (%): (10.5) %
  Absence of dizziness, Odds ratio vs. placebo: 1.66
  Absence of dizziness, Responder (%): (89.5) %
  Absence of fatigue, Nonresponder (%): (22.9) %
  Absence of fatigue, Odds ratio vs. placebo: 1.22
  Absence of fatigue, Responder (%): (77.1) %
  Absence of neck pain, Nonresponder (%): (22.2) %
  Absence of neck pain, Odds ratio vs. placebo: 1.01
  Absence of neck pain, Responder (%): (77.8) %
  Absence of sensitivity to light, Nonresponder (%): (11.8) %
  Absence of sensitivity to light, Odds ratio vs. placebo: 1.52
  Absence of sensitivity to light, Responder (%): (88.2) %
  Absence of sensitivity to sound, Nonresponder (%): (11.7) %
  Absence of sensitivity to sound, Odds ratio vs. placebo: 0.93
  Absence of sensitivity to sound, Responder (%): (88.3) %
[2]; mITT
  Effect on the most commonly reported prodrome symptoms compared with placebo: ameliorated the most commonly reported prodrome symptoms
[2]; post-dose
  Earliest time at which difference in response rates vs placebo was nominally significant, absence of fatigue: 3 h
  Earliest time at which difference in response rates vs placebo was nominally significant, absence of neck pain: 3 h
